The values below come from patent EP2140864A2 (H. Lundbeck A/S, priority 2001, dated 2002).

One assay concerns the target T1, human GAL3 receptor (Homo sapiens, UniProt O60755).
T1 construct: expressed in transfected cells
T1 sequence (O60755 1-368): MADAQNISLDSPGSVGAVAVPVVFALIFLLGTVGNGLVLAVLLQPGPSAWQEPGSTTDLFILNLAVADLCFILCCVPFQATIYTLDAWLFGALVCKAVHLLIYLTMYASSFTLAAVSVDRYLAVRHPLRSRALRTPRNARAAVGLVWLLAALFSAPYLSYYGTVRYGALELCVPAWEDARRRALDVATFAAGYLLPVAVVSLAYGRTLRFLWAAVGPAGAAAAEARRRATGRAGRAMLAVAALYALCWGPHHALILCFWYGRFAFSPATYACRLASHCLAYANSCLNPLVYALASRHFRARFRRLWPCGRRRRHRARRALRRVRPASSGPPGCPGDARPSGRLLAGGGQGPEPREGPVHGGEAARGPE
Kind of assay: Radioligand binding at cloned human GAL3 receptor. As to conditions: indolones, cloned human receptor; read-out: Ki GalR3. The procedure: The present invention provides for a method of determining the binding affinity of a GAL3 antagonist, wherein the GAL3 antagonist is dissolved in a "suitable solvent". A "suitable solvent" means one which permits the measurement of binding affinity of the GAL3 antagonist to the human GAL3 receptor at concentrations less than 1 µM, preferably less than 100 nM. Examples of solvents include, but are not limited to, DMSO, ethanol, N,N-dimethylacetamide, or water. For indolones, the preferred solvent is 3% DMSO (final concentration in the assay). For pyrimidines, the preferred solvent is 1% ethanol/0.09% polypuronic acid F-127 (final concentration in the assay). For any other type of compounds, the preferred solvent is the solvent which permits the measurement of binding affinity of a GAL3 antagonist at the lowest concentration. Once a suitable solvent is ascertained for the binding assay of the human GAL3 receptor, the same solvent is used in assays to determine the binding affinity at the GAL1 receptor, the serotonin transporter, the norepinephrine transporter, and the dopamine transporter. A solvent of 0.4% DMSO is used in the central monoamine oxidase enzyme assay.
The binding properties of the pyrimidines of the present invention were evaluated at the cloned human galanin receptors, GAL1, GAL2, and GAL3, using protocols described herein.
The binding properties of the indolones of the present invention were evaluated at the cloned human galanin receptors, GAL1, GAL2, and GAL3, using protocols described herein.
LM(tk-) cells were stably transfected with the human GAL1 or GAL3 receptor. CHO cells were stably transfected with the human GAL2 receptor.
cDNAs for the human and rat GAL1, and human and rat GAL3 receptors were transfected with a G-418 resistant gene into the mouse fibroblast LM(tk-) cell line by a calcium phosphate transfection method (Cullen, 1987). Stably transfected cells were selected with G-418. Human and rat GAL2 receptors were similarly transfected into CHO cells.
Membranes were harvested from stably transfected LM(tk-) cells. Adherent cells were washed twice in ice-cold phosphate buffered saline (138 mM NaCl, 8.1 mM Na2HPO4, 2.5 mM KCl, 1.2 mM KH2PO4, 0.9 mM CaCl2, 0.5 mM MgCl2, pH 7.4) and lysed by sonication in ice-cold sonication buffer (20 mM Tris-HCl, 5 mM EDTA, pH 7.7). Large particles and debris were cleared by low speed centrifugation (200 x g, 5 min, 4°C). Membranes were collected from the supernatant fraction by centrifugation (32,000 x g, 18 min, 4°C), washed with ice-cold hypotonic buffer, and collected again by centrifugation (32,000 x g, 18 min, 4°C). The final membrane pellet was resuspended by sonication into a small volume of ice-cold binding buffer (-1 ml for every 5 plates: 10 mM NaCl, 20 mM HEPES, 0.22 mM KH2PO4, 1.26 mM CaCl2, 0.81 mM MgSO4, pH 7.4). Protein concentration was measured by the Bradford method (Bradford, 1976) using Bio-Rad Reagent, with bovine serum albumin as a standard. Membranes were held on ice for up to one hour and used fresh, or flash frozen and stored in liquid nitrogen. Membranes were prepared similarly from CHO cells.
Galanin Recentors: Binding assays were performed according to the following published methods: human GAL3 (PCT International Publication No. WO 98/15570), human GAL1 (PCT International Publication No. WO 95/2260), human GAL2 (PCT International Publication No. WO 97/26853).
Binding data were analyzed using nonlinear regression and statistical techniques available in the GraphPAD Prism package (San Diego, CA). Enzymatic assay data were derived from a standard curve of reference compound data.
For `COc1ccc2c(c1)N(c1ccccc1)C(=O)/C2=N\c1cccc(Cl)c1` [Example 302, (3Z)-3-[(3-CHLOROPHENYL)IMINO]-6-METHOXY-1-PHENYL-1,3-DIHYDRO-2H-INDOL-2-ONE], the Ki (as a rule, the equilibrium dissociation constant of an inhibitor or competing ligand from its target) came out at 0.15 µM.

As for `O=C1C(=Nc2ccc(Cl)nc2)c2ccccc2N1c1ccccc1` (mixture of isomers) [Example 113], the inhibition constant Ki was 0.136 µM.

In the case of `O=C1/C(=N\c2ccc(Cl)c(Cl)c2)c2ccccc2N1c1cc(Cl)cc(Cl)c1` [Example 257, (3Z)-1-(3,5-DICHLOROPHENYL)-3-[(3,4-DICHLOROPHENYL)IMINO]-1,3-DIHYDRO-2H-INDOL-2-ONE], the inhibitory constant (Ki) was 0.033 µM.

As for `O=C1/C(=N\c2ccc(Cl)nc2)c2ccccc2N1c1ccsc1` [Example 267], the Ki was determined as 0.234 µM.

With `O=C1/C(=N\c2cccc(C(F)(F)F)c2)c2ccccc2N1Cc1cccnc1` [Example 277], the Ki turned out to be 0.198 µM.

As to `O=C1/C(=N\c2cccc(C(F)(F)F)c2)c2ccccc2N1c1ccc(O)cc1` [Example 310, (3Z)-1-(4-HYDROXYPHENYL)-3-{[3-(TRIFLUOROMETHYL)PHENYL]IMINO}-1,3-DIHYDRO-2H-INDOL-2-ONE], the inhibition constant Ki was 0.126 µM.

Turning to `COc1ccc(/N=C2\C(=O)N(c3ccccc3)c3ccccc32)c(OC)c1` [Example 287, (3Z)-3-[(2,4-DIMETHOXYPHENYL)IMINO]-1-PHENYL-1,3-DIHYDRO-2H-INDOL-2-ONE], the Ki was determined as 0.26 µM.

Take `N#CCc1ccc(/N=C2\C(=O)N(c3ccccc3)c3ccccc32)cc1` [Example 297, (4-{[(3Z)-2-OXO-1-PHENYL-1,2-DIHYDRO-3H-INDOL-3-YLIDENE]AMINO}PHENYL)ACETONITRILE]: the Ki turned out to be 0.226 µM.

Regarding `O=C1C(=Nc2ccc3[nH]ccc3c2)c2ccccc2N1c1ccccc1` (mixture of isomers) [Example 112, 3-(1H-INDOL-5-YLIMINO)-1-PHENYL-1,3-DIHYDRO-2H-INDOL-2-ONE], the inhibitory constant (Ki) amounted to 2.32 µM.

For the compound `O=C1C(=Nc2cccc(C(F)(F)F)c2)c2ccccc2N1c1ccsc1` (mixture of isomers) [Example 109, 1-(3-THIENYL)-3-{[3-(TRIFLUOROMETHYL)PHENYL]IMINO}-1,3-DIHYDRO-2H-INDOL-2-ONE], the Ki stood at 0.103 µM.

For the compound `Cc1cccc(/N=C2\C(=O)N(c3ccsc3)c3ccccc32)c1` [Example 271], the Ki was determined as 0.114 µM.

Staying with this assay, now noted: pyrimidines, cloned human receptor; read-out: Ki GalR3.
`Cc1ccc(Nc2cc(N(C)C)nc(N3CCN(c4cnccn4)CC3)n2)cc1C` [Example 183]: the Ki is 0.066 µM.

Take `CN(C)c1cc(NC2CCc3ccccc3C2)nc(N2CCN(Cc3ccccc3)CC2)n1` (stereo not drawn) [Example 173]: the inhibitory constant (Ki) was determined as 0.117 µM.

Regarding `CN(C)c1cc(Nc2cccc(OCc3ccccc3)c2)nc(N2CCN(c3cnccn3)CC2)n1` [Example 179], the inhibition constant (Ki) was determined as 0.015 µM.

With `CN(C)c1cc(Nc2cccc(I)c2)nc(N2CCN(c3ccccn3)CC2)n1` [Example 193], the Ki worked out at 0.244 µM.

`CN(C)c1cc(Nc2ccc(Oc3ccccc3)cc2)nc(Nc2ccccc2)n1` [Example 64]: the Ki is 0.572 µM.

For `CN(C)c1cc(Nc2ccc(Cl)c(Cl)c2Cl)nc(N2CCN(Cc3ccccc3)CC2)n1` [Example 230], the inhibition constant (Ki) is 0.052 µM.

`CN(C)c1cc(Nc2ccc(C(F)(F)F)cc2Cl)nc(N2CCN(Cc3ccccc3)CC2)n1` [Example 244]: the Ki amounted to 0.055 µM.

`COc1cccc(Nc2cc(N(C)C)nc(N3CCN(Cc4ccccc4)CC3)n2)c1` [Example 252]: the Ki was 0.088 µM.

With `CN(C)c1cc(Nc2cccc(Cl)c2Cl)nc(N2CCN(c3ccccn3)CC2)n1` [Example 218], the Ki was 0.616 µM.

As for `COc1cccc(Nc2cc(N(C)C)nc(N3CCN(Cc4ccsc4)CC3)n2)c1` [Example 146], the Ki is 0.072 µM.

As for `Cc1ccc(Nc2cc(N(C)C)nc(N3CCN(Cc4ccsc4)CC3)n2)cc1` [Example 238], the inhibition constant (Ki) came to 0.331 µM.

`COc1cccc(Nc2cc(N(C)C)nc(N3CCN(Cc4ccncc4)CC3)n2)c1` [Example 147]: the Ki was 0.64 µM.

On to `CN(C)c1cc(Nc2ccc(F)c(F)c2F)nc(N2CCN(c3ccccn3)CC2)n1` [Example 198], for which the Ki was found to be 0.56 µM.

Turning to `CN(C)c1cc(N[C@H]2CC3CC[C@]2(C)C3(C)C)nc(N2CCN(Cc3ccccc3)CC2)n1` [Example 167], the Ki stood at 0.05 µM.

As for `CN(C)c1cc(Nc2ccc3c(c2)CCC3)nc(N2CCN(c3cnccn3)CC2)n1` [Example 180], the Ki was 0.151 µM.

As to `CN(C)c1cc(NC2C3CC4CC(C3)CC2C4)nc(N2CCN(Cc3ccccc3)CC2)n1` (stereo not drawn) [Example 137], the inhibitory constant (Ki) stood at 0.124 µM.

Consider `COc1cc(Nc2cc(N(C)C)nc(N3CCN(c4ccccn4)CC3)n2)cc(C(F)(F)F)c1` [Example 197], for which the inhibition constant (Ki) is 0.666 µM.

Take `Cc1ccc(Nc2cc(N3CCCCC3)nc(Nc3ccc(C)cc3)n2)cc1` [Example 4]: the inhibition constant Ki was found to be 0.627 µM.

For the compound `CN(C)c1cc(Nc2ccc(Cl)c(Cl)c2)nc(N2CCN(c3ccccn3)CC2)n1` [Example 124], the inhibitory constant (Ki) is 0.036 µM.

Turning to `Cc1ccc(Nc2cc(N(C)C)nc(N3CCN(c4ccccn4)CC3)n2)c(Br)c1` [Example 204], the Ki is 0.269 µM.

Consider `Cc1ccc(Nc2cc(N(C)C)nc(Nc3ccc(C)cc3)n2)cc1` [Example 56], for which the Ki came out at 0.794 µM.

With `CC1CCC(Nc2cc(N(C)C)nc(N3CCN(Cc4ccccc4)CC3)n2)CC1` (stereo not drawn) [Example 157], the inhibition constant Ki amounted to 0.273 µM.

Take `CN(C)c1cc(Nc2cccc(OCc3ccccc3)c2)nc(N2CCN(c3cccc(Br)c3)CC2)n1` [Example 203]: the inhibitory constant (Ki) came to 0.052 µM.

For `COc1cccc(CCNc2nc(Nc3ccc(C)cc3)cc(N(C)C)n2)c1` [Example 149], the inhibition constant (Ki) is 0.138 µM.

Turning to `Cc1ccc(Nc2cc(N(C)C)nc(Nc3ccccc3)n2)cc1` [Example 54], the Ki was 0.132 µM.

For the compound `CN(C)c1cc(NC23CC4CC(CC(C4)C2)C3)nc(N2CCN(Cc3ccccc3)CC2)n1` [Example 138], the inhibitory constant (Ki) came to 0.052 µM.

As to `CN(C)c1cc(Nc2cccc(Br)c2)nc(N2CCN(c3ccccn3)CC2)n1` [Example 243], the Ki is 0.046 µM.

On to `CN(C)c1cc(Nc2ccc3ccccc3c2)nc(Nc2ccccc2)n1` [Example 65], for which the Ki came out at 0.329 µM.

For the compound `CN(C)c1cc(NC2CCC(C(C)(C)C)CC2)nc(N2CCN(Cc3ccccc3)CC2)n1` (stereo not drawn) [Example 169], the inhibition constant Ki was 0.077 µM.

For the compound `COc1ccc(CCNc2nc(Nc3ccc(C)cc3)cc(N(C)C)n2)cc1` [Example 232], the Ki stood at 0.155 µM.

Regarding `CN(C)c1cc(Nc2ccc3c(c2)OCO3)nc(N2CCN(c3ccccn3)CC2)n1` [Example 118], the inhibitory constant (Ki) is 0.508 µM.

On to `Cc1ccccc1Nc1cc(N(C)C)nc(Nc2ccccc2)n1` [Example 51], for which the Ki is 0.987 µM.

Turning to `CN(C)c1cc(Nc2ccc(F)c(F)c2)nc(N2CCN(c3ccccn3)CC2)n1` [Example 196], the inhibitory constant (Ki) was found to be 0.443 µM.

Turning to `COc1ccc(OC)c(Nc2cc(N(C)C)nc(N3CCN(c4ccccn4)CC3)n2)c1` [Example 201], the Ki worked out at 0.566 µM.

`CN(C)c1cc(Nc2cccc(F)c2)nc(N2CCN(Cc3ccccc3)CC2)n1` [Example 164]: the Ki worked out at 0.06 µM.

Regarding `Cc1ccc(Nc2cc(N(C)C)nc(N3CCN(c4cccc(C)c4)CC3)n2)cc1` [Example 86], the Ki was determined as 0.227 µM.

With `CN(C)c1cc(Nc2cc(F)c(F)c(F)c2)nc(N2CCN(c3ccccn3)CC2)n1` [Example 221], the Ki worked out at 0.213 µM.
